The results in this text go back to ChEMBL document CHEMBL1671852, “In vitro activities of linezolid against clinical isolates of Mycobacterium tuberculosis complex isolated in Taiwan over 10 years” (2008).

This test deals with Mycobacterium tuberculosis. Nature of the test: Antibacterial activity against Mycobacterium tuberculosis H37Rv by agar proportion method. The test is classed as functional.

Structures are written as SMILES. ≈ marks a conversion by molar mass, not a printed value.

`CC(=O)NC[C@H]1CN(c2ccc(N3CCOCC3)c(F)c2)C(=O)O1` [LINEZOLID]: the lowest concentration to inhibit growth (MIC) was 0.5 µg/mL (≈ 1.48 µM).

The term MIC denotes the lowest concentration found to suppress growth. Lower therefore signals a more susceptible organism.
